# Measurements taken from ChEMBL document CHEMBL1147701, “Novel 4-anilinoquinazolines with C-6 carbon-linked side chains: synthesis and structure-activity relationship of a series of potent, orally active, EGF receptor tyrosine kinase inhibitors” (Bioorg Med Chem Lett, 2006).
# Tests used:
# MAP kinase p38 = MAP kinase p38 (Homo sapiens, UniProt O15264+Q15759+Q16539+P53778)
# [1] = molecular target: T1, Serine/threonine-protein kinase Sgk1 (Homo sapiens, UniProt O00141); assay: Inhibition of SGK
# T1 sequence (O00141 whole entry): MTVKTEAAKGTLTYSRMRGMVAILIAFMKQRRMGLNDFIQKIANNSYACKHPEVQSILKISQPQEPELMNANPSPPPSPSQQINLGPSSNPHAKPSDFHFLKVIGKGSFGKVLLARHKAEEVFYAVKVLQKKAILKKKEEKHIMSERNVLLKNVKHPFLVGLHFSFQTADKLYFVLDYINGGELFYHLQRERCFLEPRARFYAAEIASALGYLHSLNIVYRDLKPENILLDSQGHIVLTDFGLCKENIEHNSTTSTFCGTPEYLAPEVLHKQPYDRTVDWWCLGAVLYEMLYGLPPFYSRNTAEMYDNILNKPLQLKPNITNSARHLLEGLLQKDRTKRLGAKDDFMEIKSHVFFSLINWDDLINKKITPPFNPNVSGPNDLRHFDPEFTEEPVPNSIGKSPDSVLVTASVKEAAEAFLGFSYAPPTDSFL
# [2] = molecular target: Vascular endothelial growth factor receptor 2 (Homo sapiens, UniProt P35968)
# Chain of Vascular endothelial growth factor receptor 2 (P35968 whole entry): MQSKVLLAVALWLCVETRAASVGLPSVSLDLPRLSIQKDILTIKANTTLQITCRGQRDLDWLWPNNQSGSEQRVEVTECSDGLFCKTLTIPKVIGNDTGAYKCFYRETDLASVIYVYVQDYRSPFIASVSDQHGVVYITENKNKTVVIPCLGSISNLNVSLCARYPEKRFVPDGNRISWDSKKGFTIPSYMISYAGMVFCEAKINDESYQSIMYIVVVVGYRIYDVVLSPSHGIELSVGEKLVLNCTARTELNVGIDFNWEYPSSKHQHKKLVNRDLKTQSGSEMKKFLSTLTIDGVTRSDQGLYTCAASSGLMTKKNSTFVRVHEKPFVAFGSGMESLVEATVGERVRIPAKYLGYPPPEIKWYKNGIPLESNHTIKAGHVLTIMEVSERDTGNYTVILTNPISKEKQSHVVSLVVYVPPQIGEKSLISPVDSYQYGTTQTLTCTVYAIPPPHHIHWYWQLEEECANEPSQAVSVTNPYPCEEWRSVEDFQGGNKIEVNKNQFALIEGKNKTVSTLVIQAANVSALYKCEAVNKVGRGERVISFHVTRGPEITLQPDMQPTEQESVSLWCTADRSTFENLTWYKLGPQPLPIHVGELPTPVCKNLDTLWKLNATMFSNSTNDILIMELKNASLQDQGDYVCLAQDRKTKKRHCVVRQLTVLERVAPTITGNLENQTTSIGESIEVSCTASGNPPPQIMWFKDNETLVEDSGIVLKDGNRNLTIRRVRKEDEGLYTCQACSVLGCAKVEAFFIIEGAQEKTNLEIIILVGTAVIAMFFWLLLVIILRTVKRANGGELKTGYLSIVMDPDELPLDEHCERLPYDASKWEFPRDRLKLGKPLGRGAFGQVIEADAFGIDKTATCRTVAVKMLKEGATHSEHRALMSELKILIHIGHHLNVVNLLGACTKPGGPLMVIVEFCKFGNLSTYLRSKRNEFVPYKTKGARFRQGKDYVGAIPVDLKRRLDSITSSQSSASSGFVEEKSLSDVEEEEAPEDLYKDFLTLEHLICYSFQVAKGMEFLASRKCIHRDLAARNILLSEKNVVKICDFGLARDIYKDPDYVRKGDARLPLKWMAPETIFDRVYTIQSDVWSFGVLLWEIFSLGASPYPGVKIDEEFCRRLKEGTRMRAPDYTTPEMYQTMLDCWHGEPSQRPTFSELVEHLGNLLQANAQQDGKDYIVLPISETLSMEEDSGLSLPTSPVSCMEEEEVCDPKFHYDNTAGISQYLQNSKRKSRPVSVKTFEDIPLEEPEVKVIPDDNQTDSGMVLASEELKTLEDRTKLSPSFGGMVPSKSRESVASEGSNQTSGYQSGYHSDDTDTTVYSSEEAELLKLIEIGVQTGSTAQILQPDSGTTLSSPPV
# [3] = molecular target: Tyrosine-protein kinase Lck (Homo sapiens, UniProt P06239)
# Chain of Tyrosine-protein kinase Lck (P06239 whole entry): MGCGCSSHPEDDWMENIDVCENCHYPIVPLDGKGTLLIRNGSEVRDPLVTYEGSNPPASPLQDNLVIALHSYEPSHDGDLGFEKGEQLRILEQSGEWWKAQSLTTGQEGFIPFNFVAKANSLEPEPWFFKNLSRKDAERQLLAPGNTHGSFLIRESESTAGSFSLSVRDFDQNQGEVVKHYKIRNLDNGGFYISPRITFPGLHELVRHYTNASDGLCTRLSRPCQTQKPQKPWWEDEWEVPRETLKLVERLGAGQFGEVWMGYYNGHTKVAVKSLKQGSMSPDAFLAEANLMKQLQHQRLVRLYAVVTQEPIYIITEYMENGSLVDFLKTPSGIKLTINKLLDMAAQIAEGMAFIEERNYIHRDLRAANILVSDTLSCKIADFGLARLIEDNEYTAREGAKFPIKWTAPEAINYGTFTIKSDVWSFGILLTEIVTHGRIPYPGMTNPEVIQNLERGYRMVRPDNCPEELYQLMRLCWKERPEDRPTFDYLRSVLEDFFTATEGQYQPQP
# [4] = Inhibition of CDK
# [5] = molecular target: Glycogen synthase kinase-3 beta (Homo sapiens, UniProt P49841); assay: Inhibition of GSK3-beta
# Chain of Glycogen synthase kinase-3 beta (P49841 whole entry): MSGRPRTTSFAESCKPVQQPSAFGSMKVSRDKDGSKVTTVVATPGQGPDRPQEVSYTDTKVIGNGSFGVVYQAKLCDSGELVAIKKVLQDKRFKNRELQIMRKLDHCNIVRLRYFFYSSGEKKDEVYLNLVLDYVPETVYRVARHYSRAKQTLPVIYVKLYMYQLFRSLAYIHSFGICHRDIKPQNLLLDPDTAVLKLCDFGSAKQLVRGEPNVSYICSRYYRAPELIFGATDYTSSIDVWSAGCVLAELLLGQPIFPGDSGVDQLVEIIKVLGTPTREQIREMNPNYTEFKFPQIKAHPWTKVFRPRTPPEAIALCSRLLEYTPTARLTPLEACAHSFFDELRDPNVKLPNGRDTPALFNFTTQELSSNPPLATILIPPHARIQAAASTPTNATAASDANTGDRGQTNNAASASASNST
# [6] = Bioavailability in rat; assay type: ADME, organism-based; settings: in vivo
# [7] = molecular target: AMP-activated protein kinase, AMPK; assay: Inhibition of AMPK; assay type: protein-complex assay
# [8] = Volume of distribution in rat; assay type: ADME, organism-based; settings: in vivo, read-out: Vdss
# [9] = molecular target: c-Jun N-terminal kinase, JNK (Homo sapiens, UniProt P45983+P53779+P45984); assay: Inhibition of JNK; assay type: protein assay
# [10] = Dissociation constant, pKa of the compound; assay type: physicochemical
# [11] = molecular target: Proto-oncogene tyrosine-protein kinase Src (Homo sapiens, UniProt P12931); assay: Inhibition of Src
# Chain of Proto-oncogene tyrosine-protein kinase Src (P12931 2-536 limits assumed): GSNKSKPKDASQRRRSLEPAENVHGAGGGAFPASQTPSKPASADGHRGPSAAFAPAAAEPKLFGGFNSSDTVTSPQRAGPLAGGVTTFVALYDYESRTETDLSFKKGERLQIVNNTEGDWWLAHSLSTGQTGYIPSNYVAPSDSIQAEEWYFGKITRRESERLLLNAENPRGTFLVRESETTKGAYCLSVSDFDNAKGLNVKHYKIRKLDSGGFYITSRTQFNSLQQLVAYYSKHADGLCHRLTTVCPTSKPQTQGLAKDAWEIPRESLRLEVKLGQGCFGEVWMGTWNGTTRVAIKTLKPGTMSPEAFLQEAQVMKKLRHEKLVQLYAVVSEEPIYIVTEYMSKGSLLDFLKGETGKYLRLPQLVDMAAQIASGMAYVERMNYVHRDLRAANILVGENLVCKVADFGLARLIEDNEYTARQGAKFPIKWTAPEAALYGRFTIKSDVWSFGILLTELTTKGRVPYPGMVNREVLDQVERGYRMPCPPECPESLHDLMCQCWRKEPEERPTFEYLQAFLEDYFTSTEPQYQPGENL
# [12] = Clearance in rat; assay type: ADME, organism-based; settings: in vivo
# [13] = molecular target: Rho-associated protein kinase 2 (Homo sapiens, UniProt O75116); assay: Inhibition of ROCK2
# Chain of Rho-associated protein kinase 2 (O75116 whole entry): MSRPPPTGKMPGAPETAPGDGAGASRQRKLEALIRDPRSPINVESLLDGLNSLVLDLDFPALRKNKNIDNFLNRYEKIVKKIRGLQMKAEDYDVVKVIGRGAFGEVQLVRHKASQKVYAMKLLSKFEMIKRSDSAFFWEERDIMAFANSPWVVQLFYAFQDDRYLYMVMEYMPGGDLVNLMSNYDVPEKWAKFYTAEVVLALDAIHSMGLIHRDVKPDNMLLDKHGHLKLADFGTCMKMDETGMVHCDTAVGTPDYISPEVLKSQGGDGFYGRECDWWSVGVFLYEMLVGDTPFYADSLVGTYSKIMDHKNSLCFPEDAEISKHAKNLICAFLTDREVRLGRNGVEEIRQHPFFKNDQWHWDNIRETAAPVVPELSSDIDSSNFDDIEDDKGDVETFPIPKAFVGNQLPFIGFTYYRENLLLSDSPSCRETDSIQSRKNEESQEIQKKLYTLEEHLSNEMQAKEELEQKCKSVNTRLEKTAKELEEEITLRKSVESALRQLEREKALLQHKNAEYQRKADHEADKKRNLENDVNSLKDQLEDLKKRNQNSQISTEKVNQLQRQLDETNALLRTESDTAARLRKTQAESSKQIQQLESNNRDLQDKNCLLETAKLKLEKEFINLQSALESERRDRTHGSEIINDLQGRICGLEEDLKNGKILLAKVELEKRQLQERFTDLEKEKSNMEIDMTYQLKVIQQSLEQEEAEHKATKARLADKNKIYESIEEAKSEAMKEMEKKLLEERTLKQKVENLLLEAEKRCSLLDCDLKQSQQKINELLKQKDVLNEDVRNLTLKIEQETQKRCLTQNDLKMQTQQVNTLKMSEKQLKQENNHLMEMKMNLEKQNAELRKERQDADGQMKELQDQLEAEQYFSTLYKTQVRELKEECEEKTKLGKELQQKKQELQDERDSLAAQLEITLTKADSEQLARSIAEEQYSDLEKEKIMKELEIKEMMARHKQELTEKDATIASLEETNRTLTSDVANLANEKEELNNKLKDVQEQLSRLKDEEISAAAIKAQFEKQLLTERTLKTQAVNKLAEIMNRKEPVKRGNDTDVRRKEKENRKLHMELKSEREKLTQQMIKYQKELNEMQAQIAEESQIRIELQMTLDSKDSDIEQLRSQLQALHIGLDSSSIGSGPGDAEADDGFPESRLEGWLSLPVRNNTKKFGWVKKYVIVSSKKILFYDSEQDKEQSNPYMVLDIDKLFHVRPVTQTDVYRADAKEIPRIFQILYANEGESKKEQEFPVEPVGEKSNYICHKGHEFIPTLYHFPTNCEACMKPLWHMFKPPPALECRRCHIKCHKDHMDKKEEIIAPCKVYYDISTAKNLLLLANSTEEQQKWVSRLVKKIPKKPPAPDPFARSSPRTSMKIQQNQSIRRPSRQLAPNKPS
# [14] = molecular target: Mitogen-activated protein kinase 1 (Homo sapiens, UniProt P28482); assay: Inhibition of MAPK
# Chain of Mitogen-activated protein kinase 1 (P28482 whole entry): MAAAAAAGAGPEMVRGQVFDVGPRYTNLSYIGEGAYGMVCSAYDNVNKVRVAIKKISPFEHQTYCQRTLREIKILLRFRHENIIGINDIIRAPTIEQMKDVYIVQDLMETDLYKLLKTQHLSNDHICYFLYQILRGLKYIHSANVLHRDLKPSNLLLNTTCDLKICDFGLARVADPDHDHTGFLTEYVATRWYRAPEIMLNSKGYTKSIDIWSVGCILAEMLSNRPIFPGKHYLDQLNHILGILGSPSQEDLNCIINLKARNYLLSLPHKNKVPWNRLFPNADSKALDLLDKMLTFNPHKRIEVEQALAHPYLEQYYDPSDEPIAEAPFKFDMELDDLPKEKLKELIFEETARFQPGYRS
# [15] = molecular target: cAMP-dependent protein kinase (PKA) (Homo sapiens, UniProt P22694+P17612+P22612); assay: Inhibition of PKA; assay type: protein assay
# [16] = molecular target: T2, Serine/threonine-protein kinase Chk1 (Homo sapiens, UniProt O14757); assay: Inhibition of CHK1
# T2 sequence (O14757 whole entry): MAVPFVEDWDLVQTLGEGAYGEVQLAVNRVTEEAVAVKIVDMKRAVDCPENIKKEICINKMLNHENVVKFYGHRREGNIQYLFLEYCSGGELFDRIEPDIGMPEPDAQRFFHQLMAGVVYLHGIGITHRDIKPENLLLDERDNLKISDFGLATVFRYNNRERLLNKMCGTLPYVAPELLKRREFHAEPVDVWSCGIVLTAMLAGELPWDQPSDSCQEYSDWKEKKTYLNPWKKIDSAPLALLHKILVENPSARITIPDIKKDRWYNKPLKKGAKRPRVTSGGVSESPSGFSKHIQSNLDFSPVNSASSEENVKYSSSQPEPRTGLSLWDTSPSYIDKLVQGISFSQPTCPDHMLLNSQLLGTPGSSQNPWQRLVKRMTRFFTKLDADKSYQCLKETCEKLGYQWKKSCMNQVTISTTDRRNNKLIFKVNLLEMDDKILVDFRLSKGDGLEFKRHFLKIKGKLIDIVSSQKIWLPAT
# [17] = Percent of unbound drug in dog plasma; assay type: ADME, organism-based, Canis lupus familiaris
# [18] = Clearance in rat at 5 mg/kg, po and 2 mg/kg, iv; assay type: ADME, organism-based; settings: in vivo
# [19] = Solubility in phosphate buffer at pH 7.4; assay type: physicochemical
# [20] = Bioavailability in rat at 5 mg/kg, po and 2 mg/kg, iv; assay type: ADME, organism-based; settings: in vivo
# [21] = Percent of unbound drug in human plasma; assay type: ADME, organism-based
# [22] = Distribution coefficient, logD of the compound; assay type: physicochemical; settings: octanol/water
# [23] = Inhibition of P450; assay type: ADME
# [24] = Apparent permeability from apical to basolateral side of the Caco-2 cell; assay type: ADME, cell-based; settings: human, read-out: permeability
# [25] = Volume of distribution in rat at 5 mg/kg, po and 2 mg/kg, iv; assay type: ADME, organism-based; settings: in vivo, read-out: Vdss
# LoVo = assay: Antitumor activity against human LoVo cell line xenografted in athymic mouse at 25 mg/kg/day after 18 days; assay type: functional; settings: 432 h
# [26] = Half life in rat at 5 mg/kg, po and 2 mg/kg, iv; assay type: ADME, organism-based; settings: in vivo
# [27] = Percent of unbound drug in rat plasma; assay type: ADME, organism-based
# [28] = Clearance in dog at 2 mg/kg, po and 1 mg/kg, iv; assay type: ADME, organism-based, Canis lupus familiaris; settings: in vivo
# [29] = Volume of distribution in dog at 2 mg/kg, po and 1 mg/kg, iv; assay type: ADME, organism-based, Canis lupus familiaris; settings: in vivo, read-out: Vdss
# [30] = Half life in dog at 2 mg/kg, po and 1 mg/kg, iv; assay type: ADME, organism-based, Canis lupus familiaris; settings: in vivo
# [31] = Bioavailability in dog at 2 mg/kg, po and 1 mg/kg, iv; assay type: ADME, organism-based, Canis lupus familiaris; settings: in vivo
SMILES,IC50 (MAP kinase p38),IC50 [1],IC50 [2],IC50 [3],IC50 [4],IC50 [5],bioavailability [6],IC50 [7],Vd [8],IC50 [9],pKa [10],IC50 [11],clearance [12],IC50 [13],IC50 [14],IC50 [15],IC50 [16],solubility [19],also measured
COc1cc2ncnc(Nc3cccc(Cl)c3F)c2cc1CN(C)C1(C(N)=O)CCN(C(C)C)CC1,–,> 10 µM,> 10 µM,–,–,> 10 µM,< 50%,> 10 µM,4.9 L/kg,> 10 µM,9.1,> 10 µM,114 mL/min/kg,> 10 µM,> 10 µM,–,> 10 µM,–,–
COCCN1CC(C(N)=O)(N(C)Cc2cc3c(Nc4cccc(Cl)c4F)ncnc3cc2OC)C1,> 10 µM,> 10 µM,> 10 µM,> 10 µM,> 10 µM,> 10 µM,< 50%,> 10 µM,4.2 L/kg,> 10 µM,7.1,> 10 µM,35 mL/min/kg,> 10 µM,> 10 µM,> 10 µM,> 10 µM,–,–
COc1cc2ncnc(Nc3cccc(Cl)c3F)c2cc1CN1CCC[C@H]1C(N)=O,–,> 10 µM,> 10 µM,> 10 µM,> 10 µM,> 10 µM,–,> 10 µM,–,> 10 µM,–,> 10 µM,–,> 10 µM,> 10 µM,> 10 µM,> 10 µM,260 µM,fraction unbound [17]: 0.01; clearance [28]: 5 mL/min/kg; clearance [18]: 3 mL/min/kg; bioavailability [20]: 111%; fraction unbound [21]: 0.05; logD [22]: 3.6; IC50 [23]: > 10 µM; Vd [29]: 0.4 L/kg; Papp A→B [24]: > 13 ×10⁻⁶ cm/s; Vd [25]: 0.7 L/kg; inhibition in vivo at 25 mg/kg/day (LoVo): 43%; half-life [26]: 6.6 h; half-life [30]: 0.7 h; bioavailability [31]: 88%; fraction unbound [27]: 0.037
COc1cc2ncnc(Nc3cccc(Cl)c3F)c2cc1CN(C)C1(C(N)=O)CCN(C)CC1,> 10 µM,> 10 µM,> 10 µM,> 10 µM,> 10 µM,> 10 µM,< 50%,> 10 µM,7.5 L/kg,> 10 µM,8.3,> 10 µM,55 mL/min/kg,> 10 µM,> 10 µM,> 10 µM,> 10 µM,–,–
COc1cc2ncnc(Nc3cccc(Cl)c3F)c2cc1CN1CCCC[C@@H]1C(N)=O,> 10 µM,> 10 µM,> 10 µM,> 10 µM,> 10 µM,> 10 µM,–,> 10 µM,–,> 10 µM,–,> 10 µM,–,> 10 µM,> 10 µM,> 10 µM,> 10 µM,–,–

# Further lines, with some results ahead:
IC50 (MAP kinase p38),IC50 [1],IC50 [2],IC50 [3],IC50 [4],IC50 [5],bioavailability [6],IC50 [7],Vd [8],IC50 [9],pKa [10],IC50 [11],clearance [12],IC50 [13],IC50 [14],IC50 [15],IC50 [16],solubility [19],SMILES,also measured
> 10 µM,> 10 µM,> 10 µM,> 10 µM,> 10 µM,> 10 µM,< 50%,> 10 µM,9.4 L/kg,> 10 µM,7.9,> 10 µM,55 mL/min/kg,> 10 µM,> 10 µM,> 10 µM,> 10 µM,–,COc1cc2ncnc(Nc3cccc(Cl)c3F)c2cc1CN(C)C1(C(N)=O)CN(C)C1,–
> 10 µM,> 10 µM,> 10 µM,> 10 µM,> 10 µM,> 10 µM,–,> 10 µM,–,> 10 µM,6.8,> 10 µM,–,> 10 µM,> 10 µM,> 10 µM,> 10 µM,40 µM,COc1cc2ncnc(Nc3cccc(Cl)c3F)c2cc1CN(C)[C@H](C)C(N)=O,fraction unbound [17]: 0.01; clearance [18]: 6 mL/min/kg; bioavailability [20]: 58%; fraction unbound [21]: 0.05; logD [22]: 3.4; IC50 [23]: > 10 µM; Papp A→B [24]: > 13 ×10⁻⁶ cm/s; Vd [25]: 0.6 L/kg; inhibition in vivo at 25 mg/kg/day (LoVo): 37%; half-life [26]: 4.3 h; fraction unbound [27]: 0.06
–,> 10 µM,> 10 µM,–,–,> 10 µM,–,> 10 µM,–,> 10 µM,–,> 10 µM,–,> 10 µM,> 10 µM,> 10 µM,> 10 µM,1 µM,COc1cc2ncnc(Nc3cccc(Cl)c3F)c2cc1CN(C(C)C)[C@@H](C)C(N)=O,–
–,> 10 µM,> 10 µM,> 10 µM,–,> 10 µM,< 50%,> 10 µM,7.2 L/kg,> 10 µM,7.8,> 10 µM,61 mL/min/kg,> 10 µM,> 10 µM,> 10 µM,> 10 µM,–,COc1cc2ncnc(Nc3cccc(Cl)c3F)c2cc1CN(C)C1(C(N)=O)CN(C(C)C)C1,–
